Data on three molecules can be found in US20080293679A1, “Use of carotenoids and/or carotenoid derivatives/analogs for reduction/inhibition of certain negative effects of COX inhibitors” (priority 2005, published 2008).

Series [1] in a line: Lipid peroxide levels in DLPC multilamellar vesicles, C/P 0.2 (triiodide assay). In kind it is biochemical. The conditions noted are these: for Lipid Peroxide Levels: mean ± S.D. On the procedure: The levels of lipid peroxide formation were measured photometrically at specific time points. […] Samples were prepared in a glass test tube as described in the table above. […] Sample tubes were vortexed for 3 min to form MLVs. This assay is based on the principle of the oxidative capacity of lipid peroxides to convert […], which can be measured photometrically at […] (El-Saadani et al., 1989). […] Samples were placed in a water bath set at 37° C. Samples remained in the water bath throughout the experiment except for the temporary removal for time point extractions. • 2. […] • 3. After combining sample time point aliquots with CHOD active reagent and the diffraction buffer as described in the table above, test samples were incubated about 6 hours in darkness at ambient temperature. • 4. The absorbance ([…] nm) of the samples was measured using a spectrophotometer. • 5. […] This value was determined by adding known concentrations of I2 to the CHOD reagent. A stoichiometric relationship (slope=1.02) was observed between the amount of organic peroxides assayed and the concentration of I3^- produced.

Series [2] in a line: Peroxidation study in DLPC multilamellar vesicles, C/P 0.6. In kind it is biochemical. The conditions noted are these: C/P 0.6, carotenoid 10 μM, 48 hour. On the procedure:
1. Samples were prepared in a glass test tube as described in the table above. This gives a cholesterol/DLPC mole ratio of 0.6 and a final concentration of 10 μM for the carotenoids. Equal volumes of vehicle (20 μl chloroform) were added to control samples. 2. All samples were dried down under a steady stream of nitrogen gas while vortexing. 3. Samples were placed in a vacuum desiccator for 2 hours to remove residual solvent and protected from light. 4. Multi-lamellar vesicles (MLVs) were prepared by the method developed by Bangham and Standish (1965). After samples were removed from the vacuum desiccator, they were immediately resuspended in 1 ml of diffraction buffer warmed to room temperature and vortexed for 3 minutes to form MLVs.
This assay is based on the principle of the oxidative capacity of lipid peroxides to convert I2 to I3^− (triiodide), which can be measured photometrically at 365 nm (el-Saadani et al., 1989). This assay is sensitive to peroxide concentrations as low as 10 μM.
1. Samples were placed in a water bath set at 37° C. throughout the experiment. 2. Aliquots of a sample (20 μl) were extracted at a 48 hour time point as described in the table below.
3. After combining the samples with CHOD active reagent and the diffraction buffer, test samples were incubated for about 6 hours in darkness at ambient temperature. 4. The absorbance of a sample was measured photometrically at 365 nm.
Concentrations of lipid peroxides were calculated by the use of the molar absorptivity of I3^− measured at 365 nm (ε=2.46±0.25×10^4M^−1 cm^−1). This value was determined by adding known concentrations of […] to the CHOD reagent. A stoichiometric relationship (slope=1.02) was observed between the amount of organic peroxides assayed and the concentration of I3^− produced.

Series [3] can be described thus: Lipid peroxide (LOOH) formation in DAPC lipid vesicles with cholesterol (triiodide assay). In kind it is biochemical. On the procedure: The ability of astaxanthin to block the pro-oxidant effects of rofecoxib was tested in lipid vesicles reconstituted from DAPC (10 mg/ml) in physiologic buffer (0.5 mM HEPES, 154 mM NaCl, pH=7.32). The lipid vesicles also contained cholesterol at a level that reproduced physiologic conditions (0.2 cholesterol to phospholipid mole ratio). The drug effects were tested in the vesicles following addition of astaxanthin, rofecoxib or the combination of these two agents at an identical concentration (250 nM). To measure lipid peroxide (LOOH) formation, we used an assay that measures the conversion of I2 to I3^− (triiodide). This reaction takes place in the presence of LOOH in a manner that can be measured photometrically at 365 nm, El-Saadani, 1989. […] The lipid peroxidation reaction occurs gradually under normal atmospheric oxygen conditions in a shaking water bath (37° C.).

A short description of series [4]: Oxygen Radical Absorption Capacity (ORAC) of human plasma. In kind it is biochemical. The conditions noted are these: 1.0 μM. On the procedure:
The comparative effect of COX-2 selective agents on the antioxidant capacity of human plasma was assessed using the Oxygen Radical Absorption Capacity (ORAC) assay. This assay was carried out according to the method of Huang et al., 2002 with fresh plasma using a microplate fluorescence reader in 96 well format with the excitation and emission filters set at 485 and 530 nm respectively.

A short description of series [5]: F2-isoprostane formation from DAPC lipid vesicles by GC/NCI-MS. In kind it is biochemical. The settings on record: 100 nM; vehicle 140±25 ng/100 μl; mean ± S.D. On the procedure: F2-Isoprostanes are derived principally from the formation of positioned peroxyl radical isomers of arachidonic acid, endocyclization to protaglandin G2-like structures, and reduction to PGF2-like compounds. Total levels of F2-isoprostanes, in DAPC lipid vesicles prepared in the presence of vehicle or drug, were measured by GC-MS with negative chemical ionization as described by Walter et al., 2000. Peroxidation of lipids occurred over time in the absence of any exogenous initiators at 37° C. F2-Isoprostane formation was also measured independently using mass spectroscopy in a blinded study at the Antioxidant Research Laboratory, Tufts University, Boston, Mass.

Series [6] has as its system human LDL. Description: Conjugated diene formation in isolated human LDL (CuSO4-induced oxidation). In kind it is biochemical. The conditions noted are these: 100 nM. On the procedure: (§1) The effects of the compounds on lipid peroxidation were tested in isolated human LDL. Human venous blood was collected into vacutainer tubes containing K3EDTA after a 12-hour fast. Plasma was immediately separated by centrifugation at 3000 g for 25 minutes. LDL was obtained from plasma by ultracentrifugation using a procedure similar to that reported by Chung et al, 1986 using discontinuous KBr gradient. The purity of the freshly isolated LDL was assessed by SDS-PAGE using the procedure of Laemmli, 1970.
(§2) The extent of oxidation was measured for the LDL in the absence and presence of the drugs over a range of concentrations. Malondialdehyde (MDA), a product of lipid oxidation, was measured by the reaction of this aldehyde with thiobarbituric acid in an acid medium to form a stable chromogen, referred to as thiobarbituric-acid-reactive-substances (TBARS). Purified LDL (100 μg protein/ml) was incubated for 30 minutes with either vehicle or an NSAID at various concentrations followed by addition of 50 μM CuSO4 at 37° C. Conjugated diene formation was measured by continuously monitoring the change in absorbance at 234 nm on a Beckman DU 640 spectrophotometer, as described by Esterbauer et al., 1985. Stock solutions were tested for iron contamination, which can contribute independently to lipid peroxidation and assay artifacts.

In series [7] the test system is human LDL. The series can be described thus: MDA formation (TBARS) in isolated human LDL. In kind it is biochemical. On the procedure: as §1, §2
The test system of series [8] is superoxide anion generation from phorbol-ester (PMA)-stimulated PMNs. The series can be described thus: Direct superoxide anion scavenging by EPR spectroscopy (DEPMPO spin trap), isolated human neutrophil assay. In kind it is cell-based. On the procedure:
Leukocyte Isolation and Preparation. Human polymorphonuclear leukocytes (PMNs) were isolated from freshly sampled venous blood of a single volunteer by Percoll density gradient centrifugation as described previously. Briefly, each 10 mL of whole blood was mixed with 0.8 mL of 0.1 M EDTA and 25 mL of saline. The diluted blood was then layered over 9 mL of Percoll at a specific density of 1.080 g/mL. After centrifugation at 400×g for 20 min at 20° C., the plasma, mononuclear cell, and Percoll layers were removed. Erythrocytes were subsequently lysed by addition of 18 mL of ice-cold water for 30 s, followed by 2 mL of 10×PIPES buffer (25 mM PIPES, 110 mM NaCl, and 5 mM KCl, titrated to pH 7.4 with NaOH). Cells were then pelleted at 4° C., the supernatant was decanted, and the procedure was repeated. After the second hypotonic cell lysis, cells were washed twice with PAG buffer [PIPES buffer containing 0.003% human serum albumin (HSA) and 0.1% glucose]. Afterward, PMNs were counted by light microscopy on a hemocytometer. The isolation yielded PMNs with a purity of >95%. The final pellet was then suspended in PAG-CM buffer (PAG buffer with 1 mM CaCl2 and 1 mM MgCl2).
EPR Measurements. All EPR measurements were performed using a Bruker ER 300 EPR spectrometer operating at X-band with a TM110 cavity as previously described. The microwave frequency was measured with a Model 575 microwave counter (EIP Microwave, Inc., San Jose, Calif.). To measure superoxide anion ? generation from phorbol-ester (PMA)-stimulated PMNs, EPR spin-trapping studies were performed using the spin trap DEPMPO (Oxis, Portland, Oreg.) at 10 mM. 1×10^6 PMNs were stimulated with PMA (1 ng/mL) and loaded into capillary tubes for EPR measurements. To determine the radical scavenging ability of 3 and 9 in aqueous and ethanolic formulations, PMNs were pre-incubated for 5 minutes with test compound, followed by PMA stimulation.
Instrument settings used in the spin-trapping experiments were as follows: modulation amplitude, 0.32 G; time constant, 0.16 s; scan time, 60 s; modulation frequency, 100 kHz; microwave power, 20 milliwatts; and microwave frequency, 9.76 GHz. The samples were placed in a quartz EPR flat cell, and spectra were recorded. The component signals in the spectra were identified and quantified as reported previously.

Series [9] is classed as physicochemical. On the procedure:
Determination of aqueous solubility/dispersibility. 30.13 mg of 3 was added to 1 mL of USP-purified water. The sample was rotated for 2 hours, then centrifuged for 5 minutes. After centrifuging, solid was visible in the bottom of the tube. A 125-μL aliquot of the solution was then diluted to 25 mL. The sample was analyzed by UV/Vis spectroscopy at 436 nm, and the absorbance was compared to a standard curve compiled from 4 standards of known concentration. The concentration of the original supernatant was calculated to be 2.85 mg/mL and the absorptivity was 36.94 AU*mL/cm*mg. Slight error may have been introduced by the small size of the original aliquot.
Next, 30.80 mg of 9 was added to 1 mL of USP-purified water. The sample was rotated for 2 hours, then centrifuged for 5 minutes. After centrifuging, solid was visible in the bottom of the tube. A 125-μL aliquot of the solution was then diluted to 25 mL. The sample was analyzed by UV/Vis spectroscopy at 411 nm, and the absorbance was compared to a standard curve compiled from 4 standards of known concentration. […] Slight error may have been introduced by the small size of the original aliquot.

Where [10] appears, read: alone at 250 nM, 48 hour incubation at 37° C.

Read-outs that look alike come from different tables or passages of the source. Marks after values point to notes of the source that are not given here.

With `CC1=C(/C=C/C(C)=C/C=C/C(C)=C/C=C/C=C(C)/C=C/C=C(C)/C=C/C2=C(C)C(=O)[C@@H](O)CC2(C)C)C(C)(C)C[C@H](O)C1=O` [Astaxanthin, 3,3′-dihydroxy-β,β′-carotene-4,4′-dione], the “% increase (+) or decrease (−) of lipid peroxide levels compared to control” value in series [1] (24 Hour, carotenoid 1 μM) was −6.9%^a; in series [1] (24 Hour, carotenoid 10 μM), −22.5%; in series [1] (48 Hour, carotenoid 1 μM), −12.6%^a; in [1] (48 Hour, carotenoid 10 μM) it was −40.7%^a. In addition, the “Lipid Peroxide Levels” value turned out to be 203 ± 17 µM in series [1] (24 Hour, carotenoid 1 μM, control 218 ± 20); 169 ± 7 µM in series [1] (24 Hour, carotenoid 10 μM, control 218 ± 20); 500 ± 57 µM in series [1] (48 Hour, carotenoid 1 μM, control 572 ± 76); 339 ± 42 µM in [1] (48 Hour, carotenoid 10 μM, control 572 ± 76). Moreover, the antioxidant/pro-oxidant effect result in [1] (C/P 0.2) is reported as “strong antioxidant effect”. Besides, the antioxidant/prooxidant activity entry in series [2] was “the only antioxidant”. The results for the “decrease in lipid peroxidation vs control” value in [3] (added together with rofecoxib at equimolar concentration (250 nM)) and in series [3] (setting [10]) were 6.5% and 4.4%, respectively.

For the molecule `CS(=O)(=O)c1ccc(C2=C(c3ccccc3)C(=O)OC2)cc1` [rofecoxib], in series [4] (fresh human plasma), the “reduction of ORAC value” is reported as 34%. The “ORAC value (AUC)” value in series [4] (vehicle 28.1±1.2) was 18.6±1.3. The same molecule showed a Levels of isoprostanes in series [5] of 190±18 ng/100 μl. Also, the “decrease in lag time for human LDL conjugated diene formation” value with human LDL [6] was 42.8±1.5%. The “increase in lipid peroxide levels vs control” value in series [3] (setting [10]) turned out to be 7.4%. Besides, the “effect on MDA levels (TBARS) in human LDL” value was “marked increases” in the series with human LDL [7] and “significant increase” with human LDL [7] (50 nM, 10-fold lower than comparison drugs).

For “β,ε-carotenyl 3,3′-disuccinate sodium salt [Lutein Disuccinate Sodium Salt]”, the “Mean (% inhibition) of superoxide anion signal” value is reported as “did not significantly increase scavenging” in series [8] (40% EtOH, 0.1 mM, listed as disodium disuccinate derivative of natural source lutein, sodium salt); 5.0% in [8] (40% EtOH, 0.1 mM, sodium salt); 0% in [8] (Water, 0.1 mM); 13.0% in series [8] (Water, 1.0 mM); 61.7% in [8] (Water, 3.0 mM); about 75% in series [8] (Water, 5.0 mM, listed as disodium disuccinate derivative of natural source lutein, sodium salt). Besides, the “Mean (% inhibition) of superoxide anion signal” value in series [8] (Water, 5.0 mM, listed as disuccinate lutein sodium salt, sodium salt) came to 75%; in [8] (Water, 5.0 mM, sodium salt) it was 74.7%. For the same molecule, the aqueous solubility/dispersibility in series [9] was 2850 µg/mL.
